In PubChem BioAssay (NCI):
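Growth conditions: 96-well plates. Treatment: test compound, 48 hours, 5 concentrations. Analysis: linear interpolation between bracketing concentrations; unreached endpoints set to highest concentration. The concentration for 50% growth inhibition is given as GI50. At the TGI there is no net growth.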

Tests used:
Assay in all cases: inhibition of tumour cell growth, NCI panel, 48 h
786-0 renal = tested on: 786-0 renal
A498 renal = tested on: A498 renal
A549 NSCLC = tested on: A549 NSCLC
ACHN renal = tested on: ACHN renal
BT-549 breast = tested on: BT-549 breast
CAKI-1 renal = tested on: CAKI-1 renal
CCRF-CEM leukemia = tested on: CCRF-CEM leukemia
COLO 205 colon = tested on: COLO 205 colon
DU-145 prostate = tested on: DU-145 prostate
EKVX NSCLC = tested on: EKVX NSCLC
HCC-2998 colon = tested on: HCC-2998 colon
HCT-116 colon = tested on: HCT-116 colon
HCT-15 colon = tested on: HCT-15 colon
HL-60(TB) leukemia = tested on: HL-60(TB) leukemia
HOP-62 NSCLC = tested on: HOP-62 NSCLC
HOP-92 NSCLC = tested on: HOP-92 NSCLC
HS 578T breast = tested on: HS 578T breast
HT29 colon = tested on: HT29 colon
IGROV1 ovarian = tested on: IGROV1 ovarian
K-562 leukemia = tested on: K-562 leukemia
KM12 colon = tested on: KM12 colon
LOX IMVI melanoma = tested on: LOX IMVI melanoma
M14 melanoma = tested on: M14 melanoma
MALME-3M melanoma = tested on: MALME-3M melanoma
MCF7 breast = tested on: MCF7 breast
MDA-MB-231 breast = tested on: MDA-MB-231 breast
MDA-MB-435 = tested on: MDA-MB-435
MOLT-4 leukemia = tested on: MOLT-4 leukemia
NCI-H226 lung = tested on: NCI-H226 lung
NCI-H23 lung = tested on: NCI-H23 lung
NCI-H460 lung = tested on: NCI-H460 lung
NCI-H522 lung = tested on: NCI-H522 lung
NCI/ADR-RES ovarian = tested on: NCI/ADR-RES ovarian
OVCAR-3 ovarian = tested on: OVCAR-3 ovarian
OVCAR-4 ovarian = tested on: OVCAR-4 ovarian
OVCAR-5 ovarian = tested on: OVCAR-5 ovarian
OVCAR-8 ovarian = tested on: OVCAR-8 ovarian
PC-3 prostate = tested on: PC-3 prostate
RPMI-8226 leukemia = tested on: RPMI-8226 leukemia
RXF 393 renal = tested on: RXF 393 renal
SF-268 CNS = tested on: SF-268 CNS
SF-295 CNS = tested on: SF-295 CNS
SF-539 CNS = tested on: SF-539 CNS
SK-MEL-2 melanoma = tested on: SK-MEL-2 melanoma
SK-MEL-28 melanoma = tested on: SK-MEL-28 melanoma
SK-MEL-5 melanoma = tested on: SK-MEL-5 melanoma
SK-OV-3 ovarian = tested on: SK-OV-3 ovarian
SN12C renal = tested on: SN12C renal
SNB-19 CNS = tested on: SNB-19 CNS
SNB-75 CNS = tested on: SNB-75 CNS
SR leukemia = tested on: SR leukemia
SW-620 colon = tested on: SW-620 colon
T-47D breast = tested on: T-47D breast
TK-10 renal = tested on: TK-10 renal
U251 CNS = tested on: U251 CNS
UACC-257 melanoma = tested on: UACC-257 melanoma
UACC-62 melanoma = tested on: UACC-62 melanoma
UO-31 renal = tested on: UO-31 renal

Question: Which results are given for `O=C1NC(=O)c2c1c1c3ccccc3ccc1c1[nH]c3ccccc3c21`?
Answer: GI50 (786-0 renal): 1200 nM; TGI (786-0 renal): 16600 nM; GI50 (A498 renal): 491 nM; TGI (A498 renal): 2710 nM; GI50 (A549 NSCLC): 971 nM; TGI (A549 NSCLC): > 100000 nM; GI50 (ACHN renal): 336 nM; TGI (ACHN renal): 13200 nM; GI50 (BT-549 breast): 279 nM; TGI (BT-549 breast): 2330 nM; GI50 (CAKI-1 renal): 228 nM; TGI (CAKI-1 renal): 11700 nM; GI50 (CCRF-CEM leukemia): 457 nM; TGI (CCRF-CEM leukemia): > 68700 nM; GI50 (COLO 205 colon): 1300 nM; TGI (COLO 205 colon): > 100000 nM; GI50 (DU-145 prostate): 960 nM; TGI (DU-145 prostate): > 100000 nM; GI50 (EKVX NSCLC): 2040 nM; TGI (EKVX NSCLC): > 58400 nM; GI50 (HCC-2998 colon): 7650 nM; TGI (HCC-2998 colon): > 100000 nM; GI50 (HCT-116 colon): 852 nM; TGI (HCT-116 colon): > 100000 nM; GI50 (HCT-15 colon): 593 nM; TGI (HCT-15 colon): > 100000 nM; GI50 (HL-60(TB) leukemia): 233 nM; TGI (HL-60(TB) leukemia): > 100000 nM; GI50 (HOP-62 NSCLC): 925 nM; TGI (HOP-62 NSCLC): 17600 nM; GI50 (HOP-92 NSCLC): 857 nM; TGI (HOP-92 NSCLC): 7420 nM; GI50 (HS 578T breast): 1080 nM; TGI (HS 578T breast): > 31500 nM; GI50 (HT29 colon): 631 nM; TGI (HT29 colon): > 91100 nM; GI50 (IGROV1 ovarian): 529 nM; TGI (IGROV1 ovarian): > 56200 nM; GI50 (K-562 leukemia): 543 nM; TGI (K-562 leukemia): > 91100 nM; GI50 (KM12 colon): 115 nM; TGI (KM12 colon): > 100000 nM; GI50 (LOX IMVI melanoma): 1380 nM; TGI (LOX IMVI melanoma): > 100000 nM; GI50 (M14 melanoma): 322 nM; TGI (M14 melanoma): > 100000 nM; GI50 (MALME-3M melanoma): 207 nM; TGI (MALME-3M melanoma): 6010 nM; GI50 (MCF7 breast): 327 nM; TGI (MCF7 breast): > 100000 nM; GI50 (MDA-MB-231 breast): 1150 nM; TGI (MDA-MB-231 breast): > 100000 nM; GI50 (MDA-MB-435): 247 nM; TGI (MDA-MB-435): > 100000 nM; GI50 (MOLT-4 leukemia): 444 nM; TGI (MOLT-4 leukemia): 7480 nM; GI50 (NCI-H226 lung): 641 nM; GI50 (NCI-H23 lung): 699 nM; TGI (NCI-H23 lung): > 100000 nM; GI50 (NCI-H460 lung): 400 nM; TGI (NCI-H460 lung): 24400 nM; GI50 (NCI-H522 lung): 568 nM; TGI (NCI-H522 lung): 15600 nM; GI50 (NCI/ADR-RES ovarian): 1570 nM; TGI (NCI/ADR-RES ovarian): > 87000 nM; GI50 (OVCAR-3 ovarian): 2430 nM; TGI (OVCAR-3 ovarian): 19300 nM; GI50 (OVCAR-4 ovarian): 1790 nM; TGI (OVCAR-4 ovarian): 19600 nM; GI50 (OVCAR-5 ovarian): 1630 nM; TGI (OVCAR-5 ovarian): > 100000 nM; GI50 (OVCAR-8 ovarian): 1290 nM; TGI (OVCAR-8 ovarian): 24800 nM; GI50 (PC-3 prostate): 420 nM; TGI (PC-3 prostate): 30400 nM; GI50 (RPMI-8226 leukemia): 500 nM; TGI (RPMI-8226 leukemia): > 100000 nM; GI50 (RXF 393 renal): 317 nM; TGI (RXF 393 renal): 1840 nM; GI50 (SF-268 CNS): 1430 nM; TGI (SF-268 CNS): 34300 nM; GI50 (SF-295 CNS): 1610 nM; TGI (SF-295 CNS): 14600 nM; GI50 (SF-539 CNS): 663 nM; TGI (SF-539 CNS): 35700 nM; GI50 (SK-MEL-2 melanoma): 1200 nM; TGI (SK-MEL-2 melanoma): > 100000 nM; GI50 (SK-MEL-28 melanoma): 911 nM; TGI (SK-MEL-28 melanoma): > 100000 nM; GI50 (SK-MEL-5 melanoma): 1160 nM; TGI (SK-MEL-5 melanoma): 26600 nM; GI50 (SK-OV-3 ovarian): 354 nM; TGI (SK-OV-3 ovarian): 6430 nM; GI50 (SN12C renal): 516 nM; TGI (SN12C renal): > 88200 nM; GI50 (SNB-19 CNS): 2510 nM; TGI (SNB-19 CNS): 17000 nM; GI50 (SNB-75 CNS): 4020 nM; TGI (SNB-75 CNS): 16600 nM; GI50 (SR leukemia): 169 nM; TGI (SR leukemia): 2920 nM; GI50 (SW-620 colon): 717 nM; TGI (SW-620 colon): > 100000 nM; GI50 (T-47D breast): 524 nM; TGI (T-47D breast): > 70900 nM; GI50 (TK-10 renal): 486 nM; TGI (TK-10 renal): 11400 nM; GI50 (U251 CNS): 1060 nM; TGI (U251 CNS): 15700 nM; GI50 (UACC-257 melanoma): 3740 nM; TGI (UACC-257 melanoma): > 80400 nM; GI50 (UACC-62 melanoma): 749 nM; TGI (UACC-62 melanoma): > 62300 nM; GI50 (UO-31 renal): 239 nM; TGI (UO-31 renal): 21900 nM
